This is an account of results in US10829527B2, “Conjugates of islet neogenesis peptides and analogs, and methods thereof” (SHENZHEN HIGHTIDE BIOPHARMACEUTICAL, LTD., priority 2016, dated 2020).

Experiment [1] relates to STZ induced diabetic mice. Put plainly: Oral glucose tolerance test (OGTT) in STZ induced diabetic mice model. In kind it is in vivo, C57BL/6J mice. The note with it: 250 nM/kg, glucose AUC T0~120 min, day 10 of treatment, 6 hours fasted. How it is done: (§1) After acclimatization in the animal facility for one week, 6-8 weeks old C57BL/6J mice were administered high dose STZ at 150 mg/kg in citrate buffer to establish a T1D animal model. Mice with blood glucose greater than 16.7 mmol/L at 10 days post last STZ injection were included in the study. These mice were then treated with INGAP-PP or GLP-1 or Peptide 2 at the dose of 250 nM/kg for 10 days before sacrifices. One additional group of diabetic mice were administered with saline as model control groups. Blood glucose levels were measured on day 8. Ten days post the last dosing of test agents, an oral glucose tolerance test (OGTT) was performed in 6 hours fasted animals. Blood samples obtained from the tail for glucose determination were detected with an ACCU-CHEK™ glucometer (Roche, ACCU-CHEK® Performa)
(§2) The blood glucose (BG, mM) present were measured on day 8 of treatment. The area under curve (AUC) of glucose (T0˜120 min) measured in an oral glucose tolerance test (OGTT) on day 10 of treatment.

In a further experiment the test system is pancreatic islets. Put plainly: Glucose-stimulated insulin secretion (GSIS) of isolated islets. It counts as cell-based, C57BL/6J mice. Particulars: for Insulin Secretion: 16.7 mM glucose + 10 nM peptide, groups of 5 islets, 60 min incubation; for Insulin release compared with islets cultured without the addition of peptides: 16.7 mM glucose, 10 nM peptide, result in words. How it is done:
The pancreases were procured from male adult C57BL/6J mice. After 7 days acclimation, the animals were sacrificed by cervical dislocation and the entire pancreas was removed and digested with collagenase to isolate islets. After digestion, islets were maintained at 37° C. in RPMI 1640 (Carlsbad Calif., USA) pH 7.4, containing 10% (v/v) fetal calf serum, 1% penicillin/streptomycin, and 10 mM glucose in a humid atmosphere (5% CO2/95% O2), without the addition of any compound (control), or with the addition of 10 nM glucagon like peptide-1 (GLP-1); or 10 nM INGAP-PP; or 10 nM Peptide 1, Peptide 2 or Peptide 3, as summarized in Table 5 below.
Cultured islets were rinsed in Krebs-Ringer bicarbonate buffer (KRB), pH 7.4, previously gassed with a mixture of CO2/O2 (5/95%), and pre-incubated in 1.0 mL of KRB containing 0.5% (w/v) BSA and 2.8 mM glucose at 37° C. for 45 min. After this period, groups of 5 islets were incubated in 0.6 mL KRB with the addition of 2.8 or 16.7 mM glucose, with or without the addition of peptides for 60 min. At the end of the incubation period, aliquots of the medium were collected for insulin quantitation.

Experiment [2] deals with STZ induced diabetic mice. Put plainly: Blood glucose in streptozotocin (STZ) induced diabetic mice model. It counts as in vivo, C57BL/6J mice. Particulars: 250 nM/kg, day 8 of treatment. How it is done:
as §1, §2

As for glucagon like peptide-1 [GLP-1], in experiment [1], the “AUC of OGTT (Day 10)” value is 3054.7 ± 728.9. In addition, in the experiment with pancreatic islets, the “Insulin Secretion” value is reported as 5.4 ± 2.1 ng/islet/hour and the “Insulin release compared with islets cultured without the addition of peptides” value was “significantly more insulin”. In addition, the “Blood Glucose (Day 8)” value in experiment [2] was determined as 22.1 ± 6.8 mM.

Regarding “H-IGLHDPSHGTLPNGS-OH (also: D-Isoleucine at 1) [INGAP-PP]”, the “AUC of OGTT (Day 10)” value in experiment [1] came out at 3207.6 ± 801.5. For the same substance, in the experiment with pancreatic islets, the “Insulin Secretion” value turned out to be 2.5 ± 1.0 ng/islet/hour and the “Insulin release compared with islets cultured without the addition of peptides” value is recorded as “no stimulation”. For the same substance, the “Blood Glucose (Day 8)” value in experiment [2] is reported as 25.9 ± 9.1 mM.
